Assay results from ChEMBL document CHEMBL1201862, “PubChem BioAssay data set” (2004).
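Briefly, cells in 96-well plates were exposed to five compound concentrations for 48 h, and endpoints were estimated by linear interpolation. At the GI50, growth is halved.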 Calls of active or inactive are those of the source. No stated cut-off is given here; in the data, active = GI50 up to about 1.1 µM and inactive = higher.

Legend:
Experiment in all cases: growth of human tumour cells (NCI), 48 h
[1] = system: SW-620
[2] = system: SNB-75
[3] = system: MCF7
[4] = system: T47D
[5] = system: COLO 205
[6] = system: HT-29
[7] = system: OVCAR-4
[8] = system: IGROV-1
[9] = system: SK-OV-3
[10] = system: 786-0
[11] = system: EKVX
[12] = system: ACHN
[13] = system: A498
[14] = system: SR
[15] = system: SNB-19
[16] = system: SN12C
[17] = system: OVCAR-5
[18] = system: MOLT-4
[19] = system: NCI/ADR-RES

CC(C)C(C/C=C1\CC(CO)(COC(=O)C(C)(C)C)OC1=O)C(C)C (centres undefined)
GI50 [1]: 4.48 µM (inactive) | GI50 [2]: 1.84 µM (inactive) | GI50 [3]: 20.7 µM (inactive) | GI50 [4]: 15.1 µM (inactive) | GI50 [5]: 1.64 µM (inactive) | GI50 [6]: 19.3 µM (inactive) | GI50 [7]: 16.3 µM (inactive) | GI50 [8]: 14.3 µM (inactive) | GI50 [9]: 15.1 µM (inactive) | GI50 [10]: 2.65 µM (inactive) | GI50 [11]: 11.1 µM (inactive) | GI50 [12]: 11 µM (inactive) | GI50 [13]: 14.1 µM (inactive) | GI50 [14]: 11.5 µM (inactive) | GI50 [15]: 13 µM (inactive) | GI50 [16]: 5.69 µM (inactive) | GI50 [17]: 10.5 µM (inactive) | GI50 [18]: 0.581 µM (active) | GI50 [19]: 13.6 µM (inactive)

Cn1c(Sc2ccc(-c3cccnc3)n2C)ccc1-c1cccnc1
GI50 [1]: 6.93 µM (inactive) | GI50 [2]: 21.8 µM (inactive) | GI50 [3]: 17.7 µM (inactive) | GI50 [4]: 16.7 µM (inactive) | GI50 [5]: 20 µM (inactive) | GI50 [6]: 23.7 µM (inactive) | GI50 [7]: 14.6 µM (inactive) | GI50 [8]: 15 µM (inactive) | GI50 [9]: 27.7 µM (inactive) | GI50 [10]: 11.5 µM (inactive) | GI50 [11]: 24 µM (inactive) | GI50 [12]: 20.2 µM (inactive) | GI50 [13]: 20.9 µM (inactive) | GI50 [14]: 2.13 µM (inactive) | GI50 [15]: 19.6 µM (inactive) | GI50 [16]: 16.8 µM (inactive) | GI50 [17]: 22.9 µM (inactive) | GI50 [18]: 0.353 µM (active) | GI50 [19]: 21.8 µM (inactive)

N=C(N)SCc1ccc(Cl)c2ccccc12.O=[N+]([O-])c1c(O)c(Cl)cc(Cl)c1Cl
GI50 [1]: 12.2 µM (inactive) | GI50 [2]: 11.1 µM (inactive) | GI50 [3]: 11.2 µM (inactive) | GI50 [4]: 4.19 µM (inactive) | GI50 [5]: 10.6 µM (inactive) | GI50 [6]: 10.2 µM (inactive) | GI50 [7]: 4.65 µM (inactive) | GI50 [8]: 13 µM (inactive) | GI50 [9]: 13.1 µM (inactive) | GI50 [10]: 11.3 µM (inactive) | GI50 [11]: 7.03 µM (inactive) | GI50 [12]: 12.5 µM (inactive) | GI50 [13]: 9.2 µM (inactive) | GI50 [14]: 5.42 µM (inactive) | GI50 [15]: 14.4 µM (inactive) | GI50 [16]: 11.3 µM (inactive) | GI50 [17]: 13 µM (inactive) | GI50 [18]: 5.09 µM (inactive) | GI50 [19]: 17.9 µM (inactive)

C=C(C(=O)OC1C(CO)OC(OCC2CC[C@@H]3C[C@]4(OC(=O)C3=C)C(C)=CC(=O)C24)C(O)C1O)[C@@H]1CCC(CO)C2C(=O)C=C(C)[C@@]2(O)C1 (some centres undefined)
GI50 [1]: 0.603 µM (active) | GI50 [2]: 13.8 µM (inactive) | GI50 [3]: 1.16 µM (inactive) | GI50 [4]: 2.55 µM (inactive) | GI50 [5]: 0.28 µM (active) | GI50 [6]: 1.73 µM (inactive) | GI50 [7]: 4.01 µM (inactive) | GI50 [8]: 2.79 µM (inactive) | GI50 [9]: 20.4 µM (inactive) | GI50 [10]: 1.63 µM (inactive) | GI50 [11]: 2.42 µM (inactive) | GI50 [12]: 1.44 µM (inactive) | GI50 [13]: 2.9 µM (inactive) | GI50 [14]: 0.646 µM (active) | GI50 [15]: 16.4 µM (inactive) | GI50 [16]: 1.32 µM (inactive) | GI50 [17]: 2.7 µM (inactive) | GI50 [18]: 0.693 µM (active) | GI50 [19]: 2.19 µM (inactive)

Fc1ccc(N2C(=S)SC(=N\c3ccccc3)/C2=N/c2ccccc2)cc1
GI50 [1]: > 100 µM (inactive) | GI50 [2]: > 100 µM (inactive) | GI50 [3]: > 73.8 µM (inactive) | GI50 [4]: 25.5 µM (inactive) | GI50 [5]: > 100 µM (inactive) | GI50 [6]: 27.1 µM (inactive) | GI50 [7]: > 57.7 µM (inactive) | GI50 [8]: > 43.8 µM (inactive) | GI50 [9]: > 100 µM (inactive) | GI50 [10]: > 100 µM (inactive) | GI50 [11]: 97.5 µM (inactive) | GI50 [12]: > 74.5 µM (inactive) | GI50 [13]: > 100 µM (inactive) | GI50 [14]: 25.1 µM (inactive) | GI50 [15]: > 100 µM (inactive) | GI50 [16]: > 100 µM (inactive) | GI50 [17]: > 85.3 µM (inactive) | GI50 [18]: 5.86 µM (inactive) | GI50 [19]: > 92.7 µM (inactive)

OCCN(CCO)CCn1cnc2c(NCc3ccccc3)ncnc21
GI50 [1]: > 100 µM (inactive) | GI50 [2]: > 100 µM (inactive) | GI50 [3]: > 100 µM (inactive) | GI50 [4]: > 100 µM (inactive) | GI50 [5]: > 100 µM (inactive) | GI50 [6]: > 100 µM (inactive) | GI50 [7]: > 100 µM (inactive) | GI50 [8]: > 100 µM (inactive) | GI50 [9]: > 100 µM (inactive) | GI50 [10]: > 100 µM (inactive) | GI50 [11]: > 100 µM (inactive) | GI50 [12]: > 100 µM (inactive) | GI50 [13]: > 100 µM (inactive) | GI50 [14]: > 100 µM (inactive) | GI50 [15]: > 100 µM (inactive) | GI50 [16]: > 100 µM (inactive) | GI50 [17]: > 100 µM (inactive) | GI50 [18]: > 100 µM (inactive) | GI50 [19]: > 100 µM (inactive)

S=C1c2ccc(Cl)cc2-n2cnnc2C2CSCN12 (centres undefined)
GI50 [1]: > 100 µM (inactive) | GI50 [2]: > 100 µM (inactive) | GI50 [3]: > 100 µM (inactive) | GI50 [4]: > 100 µM (inactive) | GI50 [5]: > 100 µM (inactive) | GI50 [6]: > 100 µM (inactive) | GI50 [7]: > 100 µM (inactive) | GI50 [8]: > 100 µM (inactive) | GI50 [9]: > 100 µM (inactive) | GI50 [10]: > 100 µM (inactive) | GI50 [11]: > 100 µM (inactive) | GI50 [12]: > 100 µM (inactive) | GI50 [13]: > 100 µM (inactive) | GI50 [14]: 52.4 µM (inactive) | GI50 [15]: > 100 µM (inactive) | GI50 [16]: > 100 µM (inactive) | GI50 [17]: > 100 µM (inactive) | GI50 [18]: > 100 µM (inactive) | GI50 [19]: > 100 µM (inactive)

CN(CCNC(=O)c1cn(C)c2c1ccc1cc(Cl)c(Cl)cc12)CCNC(=O)c1cn(C)c2c1ccc1cc(Cl)c(Cl)cc12
GI50 [1]: 1.8 µM (inactive) | GI50 [2]: 1.58 µM (inactive) | GI50 [3]: 1.96 µM (inactive) | GI50 [4]: 1.93 µM (inactive) | GI50 [5]: 1.64 µM (inactive) | GI50 [6]: 1.75 µM (inactive) | GI50 [7]: 2.5 µM (inactive) | GI50 [8]: 1.53 µM (inactive) | GI50 [9]: 2.03 µM (inactive) | GI50 [10]: 1.65 µM (inactive) | GI50 [11]: 2.7 µM (inactive) | GI50 [12]: 1.92 µM (inactive) | GI50 [13]: 3.82 µM (inactive) | GI50 [14]: 0.56 µM (active) | GI50 [15]: 2.08 µM (inactive) | GI50 [16]: 1.74 µM (inactive) | GI50 [17]: 2.79 µM (inactive) | GI50 [18]: 0.5 µM (active) | GI50 [19]: 2.26 µM (inactive)

O=c1c2cccnc2cc(-c2ccccc2)n1CCO
GI50 [1]: > 100 µM (inactive) | GI50 [2]: > 100 µM (inactive) | GI50 [3]: > 100 µM (inactive) | GI50 [4]: > 100 µM (inactive) | GI50 [5]: > 100 µM (inactive) | GI50 [6]: > 100 µM (inactive) | GI50 [7]: > 100 µM (inactive) | GI50 [8]: > 100 µM (inactive) | GI50 [9]: > 100 µM (inactive) | GI50 [10]: > 100 µM (inactive) | GI50 [11]: > 100 µM (inactive) | GI50 [12]: > 100 µM (inactive) | GI50 [13]: > 100 µM (inactive) | GI50 [14]: > 100 µM (inactive) | GI50 [15]: > 100 µM (inactive) | GI50 [16]: > 100 µM (inactive) | GI50 [17]: > 100 µM (inactive) | GI50 [18]: > 100 µM (inactive) | GI50 [19]: > 100 µM (inactive)

O=C1c2cc3c(cc2CC1Br)CCC3 (centres undefined)
GI50 [1]: 1.42 µM (inactive) | GI50 [2]: 2.93 µM (inactive) | GI50 [3]: 2.07 µM (inactive) | GI50 [4]: 2.39 µM (inactive) | GI50 [5]: 1.97 µM (inactive) | GI50 [6]: 2.36 µM (inactive) | GI50 [7]: 1.85 µM (inactive) | GI50 [8]: 2.86 µM (inactive) | GI50 [9]: 7.73 µM (inactive) | GI50 [10]: 1.8 µM (inactive) | GI50 [11]: 14.6 µM (inactive) | GI50 [12]: 3.8 µM (inactive) | GI50 [13]: 18.1 µM (inactive) | GI50 [14]: 0.787 µM (active) | GI50 [15]: 12.4 µM (inactive) | GI50 [16]: 1.7 µM (inactive) | GI50 [17]: 5.64 µM (inactive) | GI50 [18]: 0.953 µM (active) | GI50 [19]: 4.14 µM (inactive)

CC(C)=CCC/C(=C/CC/C(=C\CCc1ccoc1)C(=O)O)C(=O)O
GI50 [1]: > 100 µM (inactive) | GI50 [2]: > 100 µM (inactive) | GI50 [3]: > 100 µM (inactive) | GI50 [4]: > 100 µM (inactive) | GI50 [5]: > 100 µM (inactive) | GI50 [6]: > 100 µM (inactive) | GI50 [7]: > 100 µM (inactive) | GI50 [8]: > 100 µM (inactive) | GI50 [9]: > 100 µM (inactive) | GI50 [10]: > 100 µM (inactive) | GI50 [11]: > 100 µM (inactive) | GI50 [12]: > 100 µM (inactive) | GI50 [13]: > 100 µM (inactive) | GI50 [14]: > 10 µM (inactive) | GI50 [15]: > 100 µM (inactive) | GI50 [16]: > 100 µM (inactive) | GI50 [17]: > 100 µM (inactive) | GI50 [18]: > 100 µM (inactive) | GI50 [19]: > 100 µM (inactive)
